Counter-ions that a name gives are not always drawn.
These compounds were tested against Human Inducible Nitric Oxide Synthase (Homo sapiens, UniProt P35228) (assay: Inhibition of human inducible nitric oxide synthase (formation of L-[2,3,4,5-3H]citrulline from L-[2,3,4,5-3H]arginine)). Conditions: 1 μM L-Arg, pH 7.5, room temperature, 30 minutes, aqueous DMSO (max. 5%).
Format: biochemical
Source text: 26, pp. 258-264. […] J Lowenstein and S. H. Snyder in Methods in Enzymology, Vol. 233, L. Packer, ed., Academic Press, NY, 1994, Ch. 26, pp. 264-269. Various assays for NOS activity have been reported in the literature and are reviewed in the following: M. E. Murphy and E. Noack in Methods in Enzymology, Vol. 233, L. Packer, ed., Academic Press, NY, 1994, Ch. 26, pp. 240-250 and J. M. Hevel and M. A. Marletta in Methods in Enzymology, Vol. 233, L. Packer, ed., Academic Press, NY, 1994, Ch. 26, pp. 250-258. Details for the assay protocols to measure NOS activity are as follows: […] The incubation buffer (100 μL) contained; 100 mM TES, pH 7.5, 5 μM FAD, 5 μM FMN, 10 μM BH4, 0.5 mM NADPH, 0.5 mM DTT, 0.5 mg/mL BSA, 2 mM CaCl2, 10 μg/mL calmodulin (bovine), 1 μM L-Arg, 0.2 μCi L-[2,3,4,5-^3 H]Arg, and the inhibitor in aqueous DMSO (max. 5%). The reaction is initiated by addition of enzyme. Incubations are performed at room temperature for 30 minutes and stopped by the addition of an equal volume of quenching buffer consisting of 200 mM sodium citrate, pH 2.2, 0.02% sodium azide. Reaction products are separated by passing through a cation exchange resin and quantitated as cpm by scintillation counting. Percent inhibition is calculated relative to enzyme incubated without inhibitor according to: […]. Illustrative of the utility of the compounds of Formula I is the ability of such compounds to inhibit NO synthase as shown in Table 1 and as measured by the assay described above: […]

SMILES | IC50 [µM]
N=C(N)N[C@@H]1CN[C@H](C(=O)O)C1 [compound 3, (4S)-4-Guanidino-L-Proline Dihydrochloride] | 2.7
N=C(N)SC[C@@H]1CN[C@H](C(=O)O)C1 [compound 5, (4S)-4-[(Isothioureido)methyl]-L-Proline Dihydrochloride] | 111
N=C(N)NC[C@@H]1CN[C@H](C(=O)O)C1 [compound 1, (4S)-4-(Guanidinomethyl)-L-Proline Dihydrochloride] | 7.1

Other lines, results leading:

IC50 [µM] | SMILES
11 | COC(=O)[C@@H]1C[C@@H](CNC(=N)N)CN1 [compound 6, (4R)-4-(Guanidinomethyl)-L-Proline Methyl Ester Dihydrochloride]
3.5 | N=C(N)NC[C@H]1CN[C@H](C(=O)O)C1 [compound 2, (4R)-4-(Guanidinomethyl)-L-Proline Dihydrochloride]
